This note sets out measurements from patent publication US5597848A, “Benzenesulfonamide derivatives and use thereof” (Hokuriku Seiyaku Co., Ltd., priority 1992, dated 1997).

The target in assay [1] is T1, thromboxane A2 receptor (Cavia porcellus, UniProt A0A286Y4I8).
T1 construct: platelet-rich plasma; endogenous in cells; host or cells: guinea-pig platelets in platelet-rich plasma
T1 sequence (A0A286Y4I8 1-347): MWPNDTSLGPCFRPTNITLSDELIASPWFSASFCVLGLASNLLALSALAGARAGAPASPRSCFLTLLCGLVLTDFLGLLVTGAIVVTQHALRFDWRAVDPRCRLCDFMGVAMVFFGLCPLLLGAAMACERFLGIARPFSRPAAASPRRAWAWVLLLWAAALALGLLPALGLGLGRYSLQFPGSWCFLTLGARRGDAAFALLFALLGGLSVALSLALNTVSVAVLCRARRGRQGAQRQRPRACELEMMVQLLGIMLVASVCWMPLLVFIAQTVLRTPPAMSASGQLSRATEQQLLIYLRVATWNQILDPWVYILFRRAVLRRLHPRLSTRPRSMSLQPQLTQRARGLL
Briefly: Thromboxane A2 antagonistic effect: inhibition of U-46619-induced platelet aggregation in guinea-pig platelet-rich plasma. The settings on record: guinea-pig PRP, U-46619 2 μg/ml, 2 min at 37° C.; read-out: IC50 (50% inhibition against platelet aggregation). The assay is classed as cell-based, guinea-pigs. How it is done:
Blood was collected from the abdominal aorta of guinea-pigs (about 400 g wt.) into 1/10 volume of 3.8% sodium citrate, and then platelet-rich plasma (PRP: 6×10^5 cells/μl) was obtained by centrifugation. A cuvette was filled with PRP 190 μl and set in an aggregometer (Hema Tracer I; Niko Bioscience). Incubation was carried out for 2 min. at 37° C. after the addition of 1 μl of dimethyl sulfoxide solution of test compounds. To the PRP, 10 μl of U-46619 (Cayman), a thromboxane A2 /prostaglandin H2 receptor agonist and potent platelet aggregation inducer, was added at the final concentration of 2 μg/ml, and platelet aggregation was measured by an aggregometer.

Assay [2] has as its target T2, thromboxane A2 synthetase (Homo sapiens, UniProt P24557).
T2 construct: human platelet membrane fraction (RAN) as a source of thromboxane A2 synthetase; purchased RAN; host or cells: human platelet membrane fraction
T2 sequence (P24557 1-533): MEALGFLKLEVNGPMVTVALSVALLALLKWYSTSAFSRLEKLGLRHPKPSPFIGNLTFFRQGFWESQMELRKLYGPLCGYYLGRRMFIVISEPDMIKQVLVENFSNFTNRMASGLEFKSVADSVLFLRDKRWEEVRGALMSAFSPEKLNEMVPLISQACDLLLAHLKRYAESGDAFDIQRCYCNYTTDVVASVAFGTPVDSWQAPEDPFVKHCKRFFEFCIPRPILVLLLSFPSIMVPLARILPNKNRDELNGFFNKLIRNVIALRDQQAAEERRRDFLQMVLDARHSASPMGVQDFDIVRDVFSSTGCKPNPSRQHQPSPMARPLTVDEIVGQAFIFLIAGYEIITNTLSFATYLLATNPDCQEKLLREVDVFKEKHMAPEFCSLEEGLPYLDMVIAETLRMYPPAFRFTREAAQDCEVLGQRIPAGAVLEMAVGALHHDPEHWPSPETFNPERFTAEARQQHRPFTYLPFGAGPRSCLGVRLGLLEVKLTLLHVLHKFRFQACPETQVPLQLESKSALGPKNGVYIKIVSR
Put plainly: Inhibitory effect on thromboxane A2 synthetase (human platelet membrane fraction, thromboxane B2 RIA). Format: biochemical. Conditions: 3 min at 25° C., read-out: IC50 (50% inhibition of the enzyme activity). How it is done:
100 μg/ml (285 μl) of the commercially available human platelet membrane fraction (RAN) as a source of thromboxane A2 synthetase, dimethyl sulfoxide solution of test compounds (10 μl) and 100 μg/ml (5 μl) of prostaglandin H2 (Cayman) were mixed and reaction was carried out for 3 min at 25° C. Amount of thromboxane B2, a stable metabolite derived from thromboxane A2 produced, was measured by RIA method (TXB2 quantification kit; NEN).

The target of assay [3] is T3, leukotriene D4 (Cavia porcellus, UniProt Q2NNR5).
T3 construct: tracheas were isolated from male Hartley guinea-pigs; from tissue; host or cells: isolated trachea of male Hartley guinea-pigs
T3 sequence (Q2NNR5 1-340): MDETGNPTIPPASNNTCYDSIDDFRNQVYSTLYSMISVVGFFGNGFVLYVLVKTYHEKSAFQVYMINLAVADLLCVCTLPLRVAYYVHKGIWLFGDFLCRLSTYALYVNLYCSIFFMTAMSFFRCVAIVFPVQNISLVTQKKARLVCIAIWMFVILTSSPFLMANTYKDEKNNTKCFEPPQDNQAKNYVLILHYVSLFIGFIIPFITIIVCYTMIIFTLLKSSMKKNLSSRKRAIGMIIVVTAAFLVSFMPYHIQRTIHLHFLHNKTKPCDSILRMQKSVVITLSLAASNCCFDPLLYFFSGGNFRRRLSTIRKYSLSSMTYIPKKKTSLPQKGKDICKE
Briefly: Leukotriene D4 antagonistic effect in isolated trachea (Schild method). The arrangement: species or system male Hartley guinea-pigs. How it is done: According to an ordinary method, tracheas were isolated from male Hartley guinea-pigs, and ring specimens of approximately […] length were prepared. These specimens were suspended isotonically in organ baths that contained Krebs solution at 37° C. under a resting tension of 0.5 g. After repeated contractions with acetylcholine (1×10^-6 M; Ovisot for injection, Daiichi Seiyaku), and the first concentration-response curves was obtained by cummulative applications of leukotriene D4 (ULTRA FINE) into the organ baths. After treatments with test compounds at adequate concentrations for 30 min, the second concentration-response curves were obtained in the same manner as first applications. pKB values were calculated using these two concentration-response curves according to the method of Schild [Pharmacological Review, Vol. 9, 242 (1957)]. Indomethacin (3×10^-6 M; Sigma) was added beforehand to the organ bath to eliminate possible affections by thromboxane A2 and prostaglandin produced by stimulus of leukotriene D4 [Japan J. Pharmacol., Vol. 60, 227 (1992)].

The subject of assay [4] is broncho-constriction induced by U-46619. Put plainly: Inhibitory effect on broncho-constriction induced by U-46619 (Konzett-Roessler method, oral). The assay is classed as in vivo, Male hartley guinea-pigs. The settings on record: 0.3 mg/kg orally, 2 hrs before U-46619 4 μg/kg. The protocol:
Airway resistance was evaluated according to the method of Konzett-Roessler[Naunyn-Schmiedberg's Arch. Exp. Path. Pharmak., Vol. 195, 71 (1940)]. Male hartley guinea-pigs (about 400 g wt.) were anesthetized with urethane (1.5 g/kg, i.p.) and ventilated by an artificial respirator (Model 683; Harvard). At that time, overflowed air volume above the pressure of about 12 cm H2 O was measured by using a sensor (Model 7020; Ugo basile) and the value was used as an index of broncho-constriction. 0.3 mg/kg (5 ml/kg) of test compounds suspended in 5% gum Arabic was administered orally to Guinea-pigs fasted beforehand for 24 hr. After 2 hrs, U-46619 (4 μg/kg; Cayman) was administered through the cervical vein, and then maximal response was measured. Inhibitory rates compared to the reference group were calculated based on the response rate normalized by the complete closure as 100%.

In assay [5] the test system is broncho-constriction induced by leukotriene D4. Put plainly: Inhibitory effect on broncho-constriction induced by leukotriene D4 (Konzett-Roessler method, oral). Format: in vivo, male Hartley guinea-pig. The settings on record: for inhibition in vivo at 30 mg/kg: Cavia porcellus, po, 30 mg/kg orally, leukotriene D4 1 μg/kg after 2 hr, indomethacin and propranolol pretreatment, read-out: Inhibition rate. How it is done:
Airway resistance was evaluated according to the method of Konzett-Roessler[Naunyn-Schmiedberg's Arch. Exp. Path. Pharmak., Vol. 195, 71 (1940)]. After male Hartley guinea-pig fasted beforehand for 24 hr were anesthetized with urethane, overflowed air volume was measured under artificial ventilation as an index of broncho-constriction. 30 mg/kg (5 ml/kg) of test compounds suspended in 5% gum Arabic were administered orally to […]. Leukotriene D4 (1 μg/kg; ULTRA FINE) was administered through the cervical vein after 2 hr, and then values were measured at 2 min after the time when responses became maximum. Inhibitory rates compared to the control group were calculated based on the response rate normalized by the overflowed volume at complete closure as 100% broncho-constriction state. Indomethacin (2 mg/kg, i.v.) and propranolol (1 mg/kg, i.v.) were administered at 10 min and 5 min before the administration of leukotriene D4, respectively.

Where [6] appears, read: isolated trachea, 30 min treatment, indomethacin 3×10^-6 M, Krebs 37° C.

Structures are written as SMILES.

A word on the IC50: it is the concentration that inhibits the measured activity by half. A word on the Kb: it is the equilibrium dissociation constant of an antagonist, usually derived from a functional assay. High values mean a less potent antagonist, low ones a more potent antagonist. For the compound `O=C(O)CCCc1ccc(C(NS(=O)(=O)c2ccc(Cl)cc2)C2CCCCC2)cc1` (centres unmarked) [Example 74, 4-[4-[(4-Chlorophenylsulfonylamino)cyclohexylmethyl]phenyl]butyric Acid], the half-maximal inhibitory concentration (IC50) amounted to 320 nM in assay [1] and 3200 nM in assay [2]. The same compound gave an antagonist dissociation constant (Kb) in assay [3] (setting [6]) of 501 nM.
Regarding `CC(NS(=O)(=O)c1ccc(Cl)cc1)c1ccc(CCCC(=O)O)cc1` (centres unmarked) [Example 63, 4-[4-[1-(4-Chlorophenylsulfonylamino)ethyl]phenyl]butyric Acid], the IC50 in assay [2] was 2000 nM.
On to `O=C(O)CCCc1ccc(C(Cc2ccc(Cl)cc2)NS(=O)(=O)c2ccc(Cl)cc2)cc1` (centres unmarked) [Example 96, 4-[4-[2-(4-Chlorophenyl)-1-(4-chlorophenylsulfonylamino)ethyl]phenyl]butyric Acid], for which, in assay [1], the 50% inhibitory concentration (IC50) was 630 nM. In assay [4], this compound displayed an Inhibition rate of 89%. The Kb in assay [3] (setting [6]) is 1000 nM. In addition, in assay [5], the inhibition in vivo at 30 mg/kg is 43%.
For orientation: pKB means the negative decadic logarithm of the KB, by convention in mol/L. Higher therefore signals a small KB. For the compound `Cc1ccc(CC(NS(=O)(=O)c2ccc(Cl)cc2)c2ccc(CCCC(=O)O)cc2)cc1` (centres unmarked) [Example 97, 4-[4-[1-(4-Chlorophenylsulfonylamino)-2-(p-tolyl)ethyl]phenyl]butyric Acid], the 50% inhibitory concentration (IC50) in assay [1] is 320 nM. Besides, the Inhibition rate in assay [4] was determined as 88%. Moreover, the pKB in assay [3] (setting [6]) stood at 5.9. In assay [5], the inhibition in vivo at 30 mg/kg was 56%.
As for `CC(C)C(NS(=O)(=O)c1ccc(Cl)cc1)c1ccc(CCCC(=O)O)cc1` (centres unmarked) [Example 69, 4-[4-[1-(4-Chlorophenylsulfonylamino)-2-methylpropyl]phenyl]butyric Acid], the half-inhibitory concentration (IC50) in assay [1] was 200 nM; in assay [2] it was 2000 nM.
Regarding `O=C(O)CCCc1ccc(C(NS(=O)(=O)c2ccc(Cl)cc2)C2CCCC2)cc1` (centres unmarked) [Example 73, 4-[4-[(4-Chlorophenylsulfonylamino)cyclopentylmethyl]phenyl]butyric Acid], the IC50 in assay [1] is 250 nM; in assay [2], 1600 nM.
Consider `O=C(O)CCCc1ccc(C(Cc2ccccc2)NS(=O)(=O)c2ccc(Cl)cc2)cc1` (centres unmarked) [Example 62, 4-[4-[1-(4-Chlorophenylsulfonylamino)-2-phenylethyl]phenyl]butyric Acid], for which the IC50 in assay [1] worked out at 50 nM; in assay [2] it was 4000 nM.
Regarding `O=C(O)CCCc1ccc(C(CCc2ccccc2)NS(=O)(=O)c2ccc(Cl)cc2)cc1` (centres unmarked) [Example 98, 4-[4-[1-(4-Chlorophenylsulfonylamino)-3-phenylpropyl]phenyl]butyric Acid], the IC50 in assay [1] was determined as 320 nM. This compound gave an Inhibition rate in assay [4] of 84%. Moreover, in assay [3] (setting [6]), the antagonist equilibrium constant (Kb) was 398 nM. Also, the inhibition in vivo at 30 mg/kg in assay [5] amounted to 57%.
The corresponding values for `CCCCC(NS(=O)(=O)c1ccc(Cl)cc1)c1ccc(CCCC(=O)O)cc1` (centres unmarked) [Example 66, 4-[4-[1-(4-Chlorophenylsulfonylamino)pentyl]phenyl]butyric Acid] are 320 nM, 85%, 794 nM and 81%.
With `O=C(O)Cc1ccc(CCNS(=O)(=O)c2ccc(Cl)cc2)cc1` [Reference compound, reference compound], in assay [2], the IC50 amounted to 40000 nM. Besides, the Inhibition rate in assay [4] amounted to 18%. Besides, the “leukotriene D4 antagonistic effect (in words)” value in assay [3] is “inactive”. In assay [3] (setting [6]), this compound gave an antagonist dissociation constant (Kb) greater than 100000 nM. Besides, the inhibition in vivo at 30 mg/kg in assay [5] was no more than 0%. Further, the “inhibitory effect on broncho-constriction induced by leukotriene D4 (in words)” value in assay [5] (guinea pig, in vivo) was “no inhibitory effect”.
